24 compounds from patent publication US20140336182A1, “Aurora Kinase Modulators and Method of Use” (Amgen Inc., priority 2013, published 2014) can be followed below.

The structures appear in SMILES notation.

The first assay deals with HeLa cells. The assay can be described thus: HeLa cell 24 hr ploidy assay (DNA content). Format: cell-based. As to conditions: Homo sapiens, HeLa, 4N ploidy, average, read-out: 24h_4NPloidy EC50_IP (uM Avg). The procedure, abridged:
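DNA content measured by Hoechst 33342 nuclear staining (0.5 ug/ml, 45 min RT) and high-content imaging of fixed HeLa cells after 24 h compound exposure in 0.25% DMSO. Fractions of 4N and >4N cells fitted to dose curves giving EC50 IP, EC50 transit, Max and Min.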
Take `COc1cnc2c(Oc3ccc(Nc4nnc(-c5cccc(C)n5)c5ccccc45)cc3)ccnc2c1` [compound 111]: the EC50 was found to be 0.109 µM.
Still for that read-out and setting: the value for `COc1cnc2c(Oc3ccc(Nc4nnc(-c5ccc(C(F)(F)F)cc5)c5ccccc45)cc3)ccnc2c1` [compound 146, N-(4-((7-(methyloxy)-1,5-naphthyridin-4-yl)oxy)phenyl)-4-(4-(trifluoromethyl)phenyl)-1-phthalazinamine] was 0.057 µM.
Regarding `NC(=O)c1cc2nccc(Oc3ccc(Nc4nnc(-c5ccccc5)c5ccccc45)cc3F)c2s1` [compound 78], the EC50 was 0.031 µM.
For `CCc1cc(-c2ccccc2)nnc1Nc1ccc(Oc2ncnc3cc(OC)c(OC)cc23)cc1` [compound 148], the EC50 was found to be 0.039 µM.

The assay is the same for the next values; noted with them: Homo sapiens, HeLa, HeLa cells, 4N ploidy, average, read-out: 24h_4NPloidy EC50_IP (uM Avg).
Consider `COc1cnc2c(Oc3ccc(Nc4nnc(-c5ccnc(Cl)c5)c5ccccc45)cc3)ccnc2c1` [compound 283], for which the EC50 stood at 0.343 µM.
For `Cc1csc(-c2nnc(Nc3ccc(Oc4ccnc5cc(C#N)ccc45)cc3)c3ccccc23)c1` [compound 170], the EC50 is 0.007 µM.
Take `Cc1csc(-c2nnc(Nc3ccc(Sc4ccnc5cc[nH]c45)cc3)c3ccccc23)c1` [compound 464]: the EC50 turned out to be 0.001 µM.
The same measure, in the same setting: the value for `COc1cnc2c(Oc3ccc(Nc4nnc(-c5ccc(N(C)C)cc5)c5ccccc45)cc3)ccnc2c1` [compound 194] was 0.033 µM; that for `FC(F)(F)Oc1ccc2c(Sc3ccc(Nc4nnc(-c5ccccc5)c5ccccc45)cc3)ccnc2c1` [compound 497] was 0.079 µM.
In the case of `COc1cnc2c(Sc3ccc(Nc4nnc(N5CCCCC5)c5ccccc45)cc3)ccnc2c1` [compound 346], the EC50 was found to be 0.016 µM.
With `CCc1cc(-c2ccc(C)cc2)nnc1Nc1ccc(Sc2ccnc3cccnc23)cc1` [compound 358], the EC50 was determined as 0.035 µM.
Consider `COc1cnc2c(Sc3ccc(Nc4nnc(N5CC(C)CC(C)C5)c5ccccc45)cc3)ccnc2c1` (stereo not drawn) [compound 556], for which the EC50 stood at 0.026 µM.
With `COCCOc1ccc2nccc(Sc3ccc(Nc4nnc(-c5ccc(Cl)cc5)c5ccccc45)cc3)c2c1` [compound 434], the EC50 was 0.027 µM.
The same measure, in the same setting: then `Clc1ccc(-c2nnc(Nc3ccc(Oc4cnnc5ccc(Br)cc45)cc3)c3ccccc23)cc1` [compound 369], with > 1.2 µM; and `CNC(=O)c1cc(Oc2ccc(Nc3nnc(-c4ccc(Cl)cc4)c4ccccc34)cc2)ccn1` [compound 361], with 0.22 µM.
Still for that read-out and setting: the value for `COc1cnc2c(Oc3ccc(Nc4nnc(-c5cncnc5)c5ccccc45)cc3)ccnc2c1` [compound 215, N-(4-((7-(methyloxy)-1,5-naphthyridin-4-yl)oxy)phenyl)-4-(5-pyrimidinyl)-1-phthalazinamine] was > 1.2 µM; that for `COc1cc(F)cc2nccc(Sc3ccc(Nc4nnc(-c5cc(C)cs5)c5ccccc45)cc3)c12` [compound 440] was 0.029 µM; that for `COc1cnc2c(Sc3ccc(Nc4nnc(N5CCN(C)CC5)c5ccccc45)cc3)ccnc2c1` [compound 503] was 0.014 µM.
For `COc1cc2nccc(Sc3ccc(Nc4nnc(-c5ccc(Cl)cc5)c5ccccc45)cc3)c2nc1OC` [compound 598], the EC50 came to 0.028 µM.
The same measure, in the same setting: the value for `COc1cnc2c(Sc3ccc(Nc4nnc(N5CCn6ccnc6C5)c5ccccc45)cc3)ccnc2c1` [compound 576] was 0.013 µM.
Turning to `COc1cnc2c(Oc3ccc(Nc4nnc(-c5cc(Cl)cs5)c5ccccc45)cc3)ccnc2c1` [compound 316], the EC50 was 0.027 µM.
Same read-out and setting: the value for `COc1cc(OC)c2c(Oc3ccc(Nc4nnc(-c5ccc(Cl)cc5)c5ccccc45)cc3)ncnc2c1` [compound 590] was 0.004 µM.
The same measure, in the same setting: the value for `COc1ccc2c(Oc3ccc(Nc4nnc(-c5ccc(Cl)cc5)c5ccccc45)cc3)ccnc2c1` [compound 345] was 0.013 µM; that for `COc1cnc2c(Oc3ccc(Nc4nnc(-c5ccccc5)c5ccsc45)cc3)ccnc2c1` [compound 218, N-(4-((7-(methyloxy)-1,5-naphthyridin-4-yl)oxy)phenyl)-4-phenylthieno[2,3-d]pyridazin-7-amine] was 0.061 µM.
